Test results as given in paper PMC10291704 (Biology of blood and marrow transplantation : journal of …, 2019).
Where “and” joins values, the source holds several entries; their conditions need not be identical. Identical values can stand only once. Like-named read-outs stand apart in the source and are kept apart here.

Assays:
[1] = system: human cell-line model of busulfan-resistant acute myelogenous leukemia; details: cited from earlier work; for inhibitory concentration: busulfan-resistant AML cell line
[2] = cited from earlier work
[3] = between WBC of 0.3 × 10^3 /μL and 259 × 10^3 /μL; cited from earlier work
[4] = 16 patients, 40 mg/m^2/day; cited from earlier work
[5] = assay type: in vivo, human

In the case of `Nc1nc(F)nc2c1ncn2[C@@H]1O[C@H](CO)[C@@H](O)[C@@H]1O` [fludarabine], the inhibitory concentration [1] is listed as 3.0 µM.
In the case of `Nc1nc(Cl)nc2c1ncn2[C@@H]1O[C@H](CO)[C@@H](O)[C@@H]1F` [clo-fara, clofarabine], the “dose excreted in the urine unchanged” value ([2]; 24-hour urine collections in pediatric studies) is given as 49–60%, the “hepatic and non-hepatic metabolic conversion” value [2] is given as 0.2% and the “increase of predicted volume of the central compartment with WBC” value [3] is given as 2.38 fold. The “variability observed in clo-fara PK parameters (CL, AUC, volume of distribution)” value [4] was 2–3 fold, the inhibitory concentration [1] was 0.06 µM and the “difference in cytotoxic activity, clofarabine vs fludarabine” value ([1]; from inhibitory concentrations) was ~50 fold. The Additive error ([5]; bootstrap mean value) was 0.36 ng/mL, the “Proportional residual unexplained variability” value ([5]; bootstrap mean value) was 32.7% and the “Volume of the peripheral compartment (Vp)” value ([5]; bootstrap mean value) was 47.3 L/15kg. The “between-subject variability for volume of central compartment” value ([5]; final model) was 40%, the Additive error ([5]; final model parameter estimate) was 0.36 ng/mL and the “Proportional residual unexplained variability” value ([5]; final model parameter estimate) was 33% and 33.2%. For the same compound, the “Volume of the peripheral compartment (Vp)” value ([5]; final model parameter estimate) was 47 L/15kg and 47.4 L/15kg, the AUC ([5]; human, in vivo) was 3300 ng·h/mL and the “Inter-compartmental CL” value ([5]; human, in vivo) was 164 mL/min/kg. For the same compound, the “Maturation half-time (Thalf) of age effect on CL” value ([5]; human, in vivo) was 0.41 years, the “Typical value for clo-fara CL” value ([5]; human, in vivo) was 23.4 L/h/15kg and the “between-subject variability for clo-fara CL” value ([5]; human, in vivo) was 26%. The clearance ([5]; human, in vivo) was 390 mL/min, the “intercompartmental CL” value ([5]; human, in vivo) was 9.8 L/h/15kg and the AUC at 4 daily doses ([5]; human, in vivo, 10 mg/m2) was 1200 ng·h/mL. It also gave an AUC(0-t) ([5]; human, in vivo, 10 mg/m2, AUC0–24, median (range)) of 300 ng·h/mL, an AUC at 4 daily doses ([5]; human, in vivo, 30 mg/m2) of 3300 ng·h/mL and an AUC(0-t) ([5]; human, in vivo, 30 mg/m2, AUC0–24, median (range)) of 820 ng·h/mL. For the same compound, the “AUC0–24, median (range)” value ([5]; human, in vivo, 40 mg/m2) was 1.04 (0.87 – 4.0) mg•hr/L, the AUC at 5 daily doses ([5]; human, in vivo, 40 mg/m2) was 5200 ng·h/mL and the AUC(0-t) ([5]; human, in vivo, 40 mg/m2, AUC0–24, median (range)) was 780 ng·h/mL. The AUC(0-t) ([5]; human, in vivo, 40 mg/m2, AUC0–24, outlier value of one subject) was 4000 ng·h/mL and the AUC(0-t) ([5]; human, in vivo, 40 mg/m2, AUC0–24 of the other subjects) was ≤ 1170 ng·h/mL.
